In brackets after ≈: the same amount, converted by molar mass. Read-outs that look alike come from different tables or passages of the source.
How the values were obtained:
PhoU mutant = test: Weak acid susceptibility on LB agar pH 5.0; assay type: cell-based, E. coli; conditions: salicylic acid 80 μg/ml, pyrazinoic acid 230 μg/ml, overnight 37° C.
wild type strain W3110 [1] = test: Weak acid susceptibility on LB agar pH 5.0; assay type: cell-based, E. coli; conditions: salicylic acid 80 μg/ml, pyrazinoic acid 230 μg/ml, overnight 37° C.
H37Rv [2] = test: microbe, parasite or virus in culture; assay type: cell-based, M. tuberculosis; conditions: Mycobacterium tuberculosis, 240 h
parent strain H37Rv = assay type: cell-based, M. tuberculosis
wild type strain W3110 [3] = test: microbe, parasite or virus in culture; assay type: cell-based, E. coli; conditions: for CFU remaining: stationary phase
H37Rv [4] = test: microbe, parasite or virus in culture; assay type: cell-based, M. tuberculosis; conditions: Mycobacterium tuberculosis
PhoU mutant JHU-313 = assay type: cell-based, E. coli
M. tuberculosis H37Rv = test: Killing of old stationary phase cells by PhoY2 inhibitors with TB drugs (CFU); assay type: cell-based; conditions: one and two week exposure, 37° C.
Method: PhoY2 phosphatase activity inhibitors identified in the screen were tested for their ability to decrease persister formation in M. tuberculosis. […] After one and two week exposure, CFU (colony forming unit) was measured.

PhoY2 = PhoY2 (Mycobacterium tuberculosis, UniProt P9WI95); test: EnzChek phosphatase assay, FDA approved compound library screen; assay type: biochemical, M. tuberculosis; conditions: for inhibition of PhoY2 enzyme activity in library screen: 50 μM final concentration, 30 min, 60 min and overnight
Method: The FDA approved compound library consisting of about 3000 clinical compounds (50 μM final concentration) was screened for inhibitory activity for M. tuberculosis PhoU homolog PhoY2 for phosphatase activity using the EnzChek phosphatase assay kit in a 96 well plate format. The assay was run for 30 min, 60 min and overnight when the plates were read in a fluorescence plate reader (Perkin Elmer). Aurintricarboxylic acid, a known phosphatase inhibitor, was included as a positive control.

PhoU mutant (JHU-313) [5] = test: Sequential antibiotic exposure of ampicillin persisters (CFU); assay type: cell-based, E. coli; conditions: 20 h after 1.5 h ampicillin pre-exposure; ampicillin 100, gentamicin 20, trimethoprim 16, norfloxacin 5 μg/ml
JHU-313 containing pPhoU [6] = test: Kirby-Bauer paper disc assay, zone inhibition
Method: (§1) The sensitivity of the bacterial strains to antibiotics or peroxide was determined by Kirby-Bauer's paper disc assay as measured by zone inhibition in millimeters.
(§2) The sensitivity of bacterial strains to antibiotics or stresses was also assessed by the Kirby-Bauer method (2) using paper discs. E. coli bacteria were grown to log phase (10^8 bacteria) in LB broth. An inoculum from this culture was spread across the surfaces of LB plates to provide confluent growth. Nitrocellulose discs (7 mm in diameter) soaked with appropriate antibiotics or stress agents (100 mM H2O2, were placed on the agar surface). After incubation at 37° C. for 48 h, the diameter of the zone of growth inhibition was measured and scored according to the size of the zone of inhibition, which is directly proportional to the sensitivity of the organism to the antibiotic.

wild type strain W3110 [7] = test: microbe, parasite or virus in culture; assay type: cell-based, E. coli; conditions: LB broth, 16 h at 37° C.
[8] = system: JHU-313 containing pVector; test: Kirby-Bauer paper disc assay, zone inhibition
Method: as §1, §2

JHU-313 containing pPhoU [9] = test: MIC/MBC by serial two-fold dilutions in LB broth; assay type: cell-based, E. coli; conditions: 16 h at 37° C.
JHU-313 = test: Kirby-Bauer paper disc assay, zone inhibition
Method: as §1, §2

PhoU mutant (JHU-313) [10] = test: MIC/MBC by serial two-fold dilutions in LB broth; assay type: cell-based, E. coli; conditions: 16 h at 37° C.
[11] = system: JHU-313 containing pVector; test: MIC/MBC by serial two-fold dilutions in LB broth; assay type: cell-based, E. coli; conditions: 16 h at 37° C.
wild type strain W3110 [12] = assay type: cell-based, E. coli; conditions: 20 h after 1.5 h ampicillin pre-exposure; ampicillin 100, gentamicin 20, trimethoprim 16, norfloxacin 5 μg/ml
E. coli PhoU = target: T1, E. coli PhoU (Escherichia coli, UniProt P0A9K7); test: EnzChek phosphatase assay, DiFMUP substrate, pH 5.5; assay type: biochemical; conditions: pH 5.5, DiFMUP
T1 construct: His; made in house
Method: In order to test PhoU for phosphatase activity, purified PhoU protein was analyzed using the EnzChek phosphatase assay kit (Invitrogen, Molecular Probes). Phosphatase activity was continuously monitored at acidic pH 5.5 and 6,8-difluoro-4-methylumbelliferyl phosphate (DiFMUP) was used as the substrate according to manufacturer's instruction.
Since most phosphatases have a metal requirement for activity, using either Mg^2+ or Zn^2+, the effects of various metal ions on the PhoU phosphatase enzyme activity were examined at acidic pH 5.5 and using DiFMUP as a substrate.
Phosphatase assays were performed using purified recombinant wild type and mutant PhoU proteins.

PhoY1 = target: T2, PhoY1 (Mycobacterium tuberculosis, UniProt P9WI97); test: EnzChek phosphatase assay; assay type: biochemical, M. tuberculosis; conditions: pH 5.5
T2 sequence (P9WI97 1-221): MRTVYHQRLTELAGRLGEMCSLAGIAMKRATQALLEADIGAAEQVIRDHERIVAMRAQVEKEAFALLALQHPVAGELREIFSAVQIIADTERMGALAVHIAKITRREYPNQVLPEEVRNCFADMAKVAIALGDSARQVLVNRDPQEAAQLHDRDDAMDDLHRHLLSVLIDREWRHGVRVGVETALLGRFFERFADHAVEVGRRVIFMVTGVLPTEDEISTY

Sequence of PhoY2 (P9WI95 whole entry): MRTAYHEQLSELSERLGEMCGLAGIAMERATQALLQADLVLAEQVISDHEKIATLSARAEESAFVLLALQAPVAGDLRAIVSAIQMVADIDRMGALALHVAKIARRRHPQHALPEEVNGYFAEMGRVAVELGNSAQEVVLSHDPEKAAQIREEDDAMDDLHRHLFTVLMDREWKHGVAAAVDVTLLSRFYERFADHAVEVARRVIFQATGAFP
T1 sequence (P0A9K7 whole entry): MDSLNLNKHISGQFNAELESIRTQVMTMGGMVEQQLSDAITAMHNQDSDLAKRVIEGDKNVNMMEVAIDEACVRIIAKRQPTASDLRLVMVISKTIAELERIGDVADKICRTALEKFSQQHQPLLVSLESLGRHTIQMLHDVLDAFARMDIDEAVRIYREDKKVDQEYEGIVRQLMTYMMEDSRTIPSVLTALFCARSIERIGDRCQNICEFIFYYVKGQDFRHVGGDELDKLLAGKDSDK

For O=C(O)c1ccccc1O [salicylic acid], the “growth on LB agar with weak acid” value (PhoU mutant) was “lack of growth at ⅓ MIC” and the “growth on LB agar with weak acid” value (wild type strain W3110 [1]) was “resistant”.
Compound NNC(=O)c1ccncc1 [INH, isoniazid] has an MIC (H37Rv [2]; 10 days at 37° C.) of 0.2 µg/mL (≈ 1.46 µM).
With NC(=O)c1cnccn1 [PZA, pyrazinamide] the “CFU/ml 3 day” value (parent strain H37Rv; 200 μg/ml) was 3.1 × 10^5 CFU/ml, the “CFU/ml 9 day” value (parent strain H37Rv; 200 μg/ml) was 5.3 × 10^3 CFU/ml and the MIC (wild type strain W3110 [3]; Escherichia coli, W3110, normal growing E. coli, pH 5.0) was > 2000 µg/mL. For the same compound, the CFU left (wild type strain W3110 [3]; pH 5) was “about 10^6 CFU/ml”, the CFU remaining (wild type strain W3110 [3]; 500 μg/ml, pH 5.0, 1 week) was 5×10^4 CFU/ml and the CFU remaining (wild type strain W3110 [3]; 2 mg/ml, pH 5.0, day 6) was 6.7×10^6 CFU/ml. For the same compound, the MBC (H37Rv [4]; pH 5.9, read-out: MBC) was 400 µg/mL (≈ 3250 µM), the MIC (H37Rv [4]; pH 5.9, read-out: MIC) was 200 µg/mL (≈ 1620 µM) and the MIC (H37Rv [2]; pH 5.6, pH5.6, 10 days at 37° C.) was 200 µg/mL (≈ 1620 µM). For the same compound, the killing of culture (PhoU mutant JHU-313; pH 5) was “completely killed”, the viable bacteria left (PhoU mutant JHU-313; stationary phase, 500 μg/ml, pH 5.0, 1 week) was “no viable bacteria left” and the sterilization of culture (PhoU mutant JHU-313; stationary phase, 2 mg/ml, pH 5.0, day 6) was “completely sterilized”.
With Pyrantel tartrate the “enhancement of INH, RIF or PZA activity” value (M. tuberculosis H37Rv) was “could enhance the activity of INH, RIF or PZA”.
With C1CNCCN1 [piperazine] the “inhibition of PhoY2 enzyme activity in library screen” value (PhoY2) was “inhibit PhoY2 enzyme activity”.
In the case of CO[C@H]1/C=C/O[C@@]2(C)Oc3c(C)c(O)c4c(O)c(c(/C=N/N5CCN(C)CC5)c(O)c4c3C2=O)NC(=O)/C(C)=C\C=C\[C@H](C)[C@H](O)[C@@H](C)[C@@H](O)[C@@H](C)[C@H](OC(C)=O)[C@@H]1C [RIF, rifampin], the “CFU/ml 3 day” value (parent strain H37Rv; 8 μg/ml) is reported as 3.37 × 10^5 CFU/ml, the MBC (H37Rv [4]) is reported as 0.2 µg/mL (≈ 0.243 µM) and the MIC (H37Rv [4]) is reported as 0.1 µg/mL (≈ 0.122 µM). The MIC (H37Rv [2]; 10 days at 37° C.) was 0.2 µg/mL (≈ 0.243 µM).
In the case of O=C(O)c1cnccn1 [pyrazinoic acid], the “growth on LB agar with weak acid” value (PhoU mutant) is reported as “lack of growth at ⅓ MIC” and the “growth on LB agar with weak acid” value (wild type strain W3110 [1]) is reported as “resistant”.
With gentamicin the “CFU after second antibiotic exposure” value (PhoU mutant (JHU-313) [5]) was 2 × 10^3 CFU/ml, the zone inhibition (JHU-313 containing pPhoU [6]; 0.1 μg/ml) was 17 mm and the zone inhibition (JHU-313 containing pPhoU [6]; 0.5 μg/ml) was 22 mm. It also gave a zone inhibition (JHU-313 containing pPhoU [6]; 2 μg/ml) of 24 mm, a zone inhibition (JHU-313 containing pPhoU [6]; 10 μg/ml) of 28 mm and an MBC (wild type strain W3110 [7]) of 5 µg/mL. For the same compound, the MIC (wild type strain W3110 [7]) was 2.5 µg/mL, the zone inhibition ([8]; 0.1 μg/ml) was 22 mm and the zone inhibition ([8]; 0.5 μg/ml) was 29 mm. It also gave a zone inhibition ([8]; 2 μg/ml) of 30 mm, a zone inhibition ([8]; 10 μg/ml) of 31 mm and an MBC (JHU-313 containing pPhoU [9]) of 5 µg/mL. For the same compound, the MIC (JHU-313 containing pPhoU [9]) was 2.5 µg/mL, the zone inhibition (JHU-313; 0.1 μg/ml) was 20 mm and the zone inhibition (JHU-313; 0.5 μg/ml) was 22 mm. It also gave a zone inhibition (JHU-313; 2 μg/ml) of 26 mm, a zone inhibition (JHU-313; 10 μg/ml) of 27 mm and a zone inhibition (W3110; 0.1 μg/ml) of 14 mm. For the same compound, the zone inhibition (W3110; 0.5 μg/ml) was 20 mm, the zone inhibition (W3110; 2 μg/ml) was 22 mm and the zone inhibition (W3110; 10 μg/ml) was 25 mm. For the same compound, the MBC (PhoU mutant (JHU-313) [10]) was 2.5 µg/mL, the MIC (PhoU mutant (JHU-313) [10]) was 1.25 µg/mL and the MBC [11] was 2.5 µg/mL. The MIC [11] was 1.25 µg/mL and the “CFU after second antibiotic exposure” value (wild type strain W3110 [12]) was 5 × 10^5 CFU/ml.
CN1CCCN=C1/C=C/c1cccs1 [pyrantel pamoate] was tested, and the “inhibition of PhoY2 enzyme activity in library screen” value (PhoY2) was “inhibit PhoY2 enzyme activity”.
With phosphate the “effect on PhoU phosphatase activity” value (E. coli PhoU) was “inhibit the phosphatase activity”, the “effect on PhoY1 phosphatase activity” value (PhoY1) was “inhibited” and the “effect on PhoY2 phosphatase activity” value (PhoY2; pH 5.5) was “inhibited”.

From US20100210602A1, “PhoU (PerF), A P[…] INVOLVED IN [sequence] FORMATION AND TOLERANCE TO MULTIPLE ANTIBIOTICS AND [sequence] AS A DRUG TARGET FOR [sequence] BACTERIA” (priority 2006, published 2010)
